# PubChem BioAssay (NCI)
#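 Dose response: 5 concentrations. Exposure: 48 h. Format: 96-well plates. Endpoint: linear interpolation; highest concentration if not reached. TGI is the concentration that stops growth completely.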
# Key:
# Test in all cases: NCI tumour cell line growth inhibition, 48 h
# 786-0 renal = tested on: 786-0 renal
# A498 renal = tested on: A498 renal
# A549 NSCLC = tested on: A549 NSCLC
# ACHN renal = tested on: ACHN renal
# BT-549 breast = tested on: BT-549 breast
# CAKI-1 renal = tested on: CAKI-1 renal
# CCRF-CEM leukemia = tested on: CCRF-CEM leukemia
# COLO 205 colon = tested on: COLO 205 colon
# DU-145 prostate = tested on: DU-145 prostate
# EKVX NSCLC = tested on: EKVX NSCLC
# HCC-2998 colon = tested on: HCC-2998 colon
# HCT-116 colon = tested on: HCT-116 colon
# HCT-15 colon = tested on: HCT-15 colon
# HL-60(TB) leukemia = tested on: HL-60(TB) leukemia
# HOP-62 NSCLC = tested on: HOP-62 NSCLC
# HOP-92 NSCLC = tested on: HOP-92 NSCLC
# HS 578T breast = tested on: HS 578T breast
# HT29 colon = tested on: HT29 colon
# IGROV1 ovarian = tested on: IGROV1 ovarian
# K-562 leukemia = tested on: K-562 leukemia
# KM12 colon = tested on: KM12 colon
# LOX IMVI melanoma = tested on: LOX IMVI melanoma
# M14 melanoma = tested on: M14 melanoma
# MALME-3M melanoma = tested on: MALME-3M melanoma
# MCF7 breast = tested on: MCF7 breast
# MDA-MB-231 breast = tested on: MDA-MB-231 breast
# MDA-MB-435 = tested on: MDA-MB-435
# MOLT-4 leukemia = tested on: MOLT-4 leukemia
# NCI-H226 lung = tested on: NCI-H226 lung
# NCI-H23 lung = tested on: NCI-H23 lung
# NCI-H460 lung = tested on: NCI-H460 lung
# NCI-H522 lung = tested on: NCI-H522 lung
# NCI/ADR-RES ovarian = tested on: NCI/ADR-RES ovarian
# OVCAR-3 ovarian = tested on: OVCAR-3 ovarian
# OVCAR-4 ovarian = tested on: OVCAR-4 ovarian
# OVCAR-5 ovarian = tested on: OVCAR-5 ovarian
# OVCAR-8 ovarian = tested on: OVCAR-8 ovarian
# PC-3 prostate = tested on: PC-3 prostate
# RPMI-8226 leukemia = tested on: RPMI-8226 leukemia
# RXF 393 renal = tested on: RXF 393 renal
# SF-268 CNS = tested on: SF-268 CNS
# SF-295 CNS = tested on: SF-295 CNS
# SF-539 CNS = tested on: SF-539 CNS
# SK-MEL-2 melanoma = tested on: SK-MEL-2 melanoma
# SK-MEL-28 melanoma = tested on: SK-MEL-28 melanoma
# SK-MEL-5 melanoma = tested on: SK-MEL-5 melanoma
# SK-OV-3 ovarian = tested on: SK-OV-3 ovarian
# SN12C renal = tested on: SN12C renal
# SNB-19 CNS = tested on: SNB-19 CNS
# SNB-75 CNS = tested on: SNB-75 CNS
# SR leukemia = tested on: SR leukemia
# SW-620 colon = tested on: SW-620 colon
# T-47D breast = tested on: T-47D breast
# TK-10 renal = tested on: TK-10 renal
# U251 CNS = tested on: U251 CNS
# UACC-257 melanoma = tested on: UACC-257 melanoma
# UACC-62 melanoma = tested on: UACC-62 melanoma
# UO-31 renal = tested on: UO-31 renal
smiles,measurement,setting,value
COc1cc(/C=N/n2c(-c3ccccc3)n[nH]c2=O)cc(OC)c1OC,TGI,786-0 renal,48.2 µM
same,TGI,A498 renal,17.4 µM
same,TGI,A549 NSCLC,> 100 µM
same,TGI,ACHN renal,40.5 µM
same,TGI,BT-549 breast,18.6 µM
same,TGI,CAKI-1 renal,21.7 µM
same,TGI,CCRF-CEM leukemia,> 100 µM
same,TGI,COLO 205 colon,> 100 µM
same,TGI,DU-145 prostate,> 76.2 µM
same,TGI,EKVX NSCLC,> 100 µM
same,TGI,HCC-2998 colon,> 100 µM
same,TGI,HCT-116 colon,> 100 µM
same,TGI,HCT-15 colon,> 100 µM
same,TGI,HL-60(TB) leukemia,> 100 µM
same,TGI,HOP-62 NSCLC,33.1 µM
same,TGI,HOP-92 NSCLC,> 82.2 µM
same,TGI,HS 578T breast,20.2 µM
same,TGI,HT29 colon,> 100 µM
same,TGI,IGROV1 ovarian,> 100 µM
same,TGI,K-562 leukemia,> 100 µM
same,TGI,KM12 colon,> 100 µM
same,TGI,LOX IMVI melanoma,> 100 µM
same,TGI,M14 melanoma,> 100 µM
same,TGI,MALME-3M melanoma,48.8 µM
same,TGI,MCF7 breast,> 100 µM
same,TGI,MDA-MB-231 breast,> 61.8 µM
same,TGI,MDA-MB-435,6.43 µM
same,TGI,MOLT-4 leukemia,> 100 µM
same,TGI,NCI-H226 lung,> 100 µM
same,TGI,NCI-H23 lung,> 71.8 µM
same,TGI,NCI-H460 lung,> 100 µM
same,TGI,NCI-H522 lung,> 58.1 µM
same,TGI,NCI/ADR-RES ovarian,9.96 µM
same,TGI,OVCAR-3 ovarian,> 37.5 µM
same,TGI,OVCAR-4 ovarian,> 100 µM
same,TGI,OVCAR-5 ovarian,> 100 µM
same,TGI,OVCAR-8 ovarian,> 100 µM
same,TGI,PC-3 prostate,> 100 µM
same,TGI,RPMI-8226 leukemia,> 100 µM
same,TGI,RXF 393 renal,29.8 µM
same,TGI,SF-268 CNS,40.7 µM
same,TGI,SF-295 CNS,18 µM
same,TGI,SF-539 CNS,39.1 µM
same,TGI,SK-MEL-2 melanoma,> 59 µM
same,TGI,SK-MEL-28 melanoma,> 100 µM
same,TGI,SK-MEL-5 melanoma,> 100 µM
same,TGI,SK-OV-3 ovarian,> 25 µM
same,TGI,SN12C renal,> 100 µM
same,TGI,SNB-19 CNS,> 43.1 µM
same,TGI,SNB-75 CNS,> 30.2 µM
same,TGI,SR leukemia,> 100 µM
same,TGI,SW-620 colon,> 100 µM
same,TGI,T-47D breast,> 100 µM
same,TGI,TK-10 renal,> 65.9 µM
same,TGI,U251 CNS,> 42.3 µM
same,TGI,UACC-257 melanoma,> 100 µM
same,TGI,UACC-62 melanoma,> 100 µM
same,TGI,UO-31 renal,> 100 µM
O=C1C(Cl)=C(N2CCN(CCOCCO)CC2)C(=O)c2ncccc21,TGI,786-0 renal,> 10 µM
same,TGI,A498 renal,> 10 µM
same,TGI,A549 NSCLC,> 10 µM
same,TGI,ACHN renal,> 10 µM
same,TGI,BT-549 breast,> 10 µM
same,TGI,CAKI-1 renal,> 10 µM
same,TGI,CCRF-CEM leukemia,> 10 µM
same,TGI,COLO 205 colon,> 10 µM
same,TGI,DU-145 prostate,> 10 µM
same,TGI,EKVX NSCLC,> 10 µM
same,TGI,HCC-2998 colon,> 10 µM
same,TGI,HCT-116 colon,> 10 µM
same,TGI,HCT-15 colon,> 10 µM
same,TGI,HL-60(TB) leukemia,> 10 µM
same,TGI,HOP-62 NSCLC,> 10 µM
same,TGI,HOP-92 NSCLC,3.29 µM
same,TGI,HS 578T breast,> 10 µM
same,TGI,HT29 colon,> 10 µM
same,TGI,IGROV1 ovarian,> 10 µM
same,TGI,K-562 leukemia,> 10 µM
same,TGI,KM12 colon,> 10 µM
same,TGI,LOX IMVI melanoma,> 10 µM
same,TGI,M14 melanoma,> 10 µM
same,TGI,MALME-3M melanoma,> 10 µM
same,TGI,MCF7 breast,> 10 µM
same,TGI,MDA-MB-231 breast,> 10 µM
same,TGI,MDA-MB-435,7.05 µM
same,TGI,MOLT-4 leukemia,> 10 µM
same,TGI,NCI-H226 lung,> 10 µM
same,TGI,NCI-H23 lung,> 10 µM
same,TGI,NCI-H460 lung,> 10 µM
same,TGI,NCI-H522 lung,6.33 µM
same,TGI,NCI/ADR-RES ovarian,> 10 µM
same,TGI,OVCAR-3 ovarian,> 10 µM
same,TGI,OVCAR-4 ovarian,> 10 µM
same,TGI,OVCAR-5 ovarian,> 10 µM
same,TGI,OVCAR-8 ovarian,> 10 µM
same,TGI,PC-3 prostate,> 10 µM
same,TGI,RPMI-8226 leukemia,> 10 µM
same,TGI,RXF 393 renal,9.68 µM
same,TGI,SF-268 CNS,> 10 µM
same,TGI,SF-295 CNS,> 10 µM
same,TGI,SF-539 CNS,> 10 µM
same,TGI,SK-MEL-2 melanoma,> 10 µM
same,TGI,SK-MEL-28 melanoma,> 10 µM
same,TGI,SK-MEL-5 melanoma,> 10 µM
same,TGI,SK-OV-3 ovarian,> 10 µM
same,TGI,SN12C renal,> 10 µM
same,TGI,SNB-19 CNS,> 10 µM
same,TGI,SNB-75 CNS,> 10 µM
same,TGI,SR leukemia,> 10 µM
same,TGI,SW-620 colon,> 10 µM
same,TGI,T-47D breast,5.51 µM
same,TGI,TK-10 renal,> 10 µM
same,TGI,U251 CNS,> 10 µM
same,TGI,UACC-257 melanoma,> 10 µM
same,TGI,UACC-62 melanoma,> 10 µM
